The numbers were not newly measured in US20090214643A1, “IMPROVED PHARMACOKINETIC PROFILE OF BETA-ADRENERGIC INVERSE AGONISTS FOR THE TREATMENT OF PULMONARY AIRWAY DISEASES” (priority 2005, published 2009), which cites them from elsewhere.

For data set [1] the following is noted: single dose, Corgard product insert.

As for `CC(C)(C)NCC(O)COc1cccc2c1CC(O)C(O)C2` (stereo not drawn) [nadolol], the “average Tmax (time to peak serum level)” value in data set [1] is 3.5 h. Further, in the data set on asthmatics (medical literature accounts), the “response of asthmatics to beta blocker administration” value is reported as “serious pulmonary function reduction”.

Take `CC(C)NCC(O)c1ccc2ccccc2c1` (stereo not drawn) [pronethalol]: the “effect on airway function observed in asthmatics” value in the data set on asthmatics (literature 1962, 1964) is reported as “reduction in airway function”.
